Test results as given in ChEMBL document CHEMBL1155006, “Anti-retroviral and cytostatic activity of 2',3'-dideoxyribonucleoside 3'-disulfides” (Bioorg Med Chem, 2008).

What was measured:
[1] = system: Human immunodeficiency virus 2; experiment: Antiviral activity against HIV2 ROD in CEM/0 cells assessed as inhibition of virus-induced cytopathogenicity; assay type: functional, organism-based; conditions: Human immunodeficiency virus 2, ROD, CCRF-CEM
[2] = system: Moloney murine sarcoma virus; experiment: Inhibition of murine sarcoma virus-induced transformation of mouse embryo fibroblast C3H/3T3 cells after 6 days; conditions: C3H/3T3, 144 h
[3] = Cytotoxicity against human Molt4/C8; assay type: functional, cell-based; conditions: MOLT-4
[4] = Chemical stability assessed as half life in presence of dithiothreitol; assay type: physicochemical
[5] = Chemical stability assessed as half life at pH 7.2 in methanol-water mixture; assay type: physicochemical
[6] = system: Human immunodeficiency virus 2; experiment: Antiviral activity against HIV2 ROD in TK1 deficient human CEM cells assessed as inhibition of virus-induced cytopathogenicity; assay type: functional, organism-based; conditions: Human immunodeficiency virus 2, ROD, CCRF-CEM
[7] = system: Human immunodeficiency virus 1; experiment: Antiviral activity against HIV1 3B in CEM/0 cells assessed as inhibition of virus-induced cytopathogenicity; assay type: functional, organism-based; conditions: Human immunodeficiency virus 1, 3B, CCRF-CEM
[8] = Cytotoxicity against human CEM/0 cells; assay type: cell-based, CCRF-CEM
[9] = system: Human immunodeficiency virus 1; experiment: Antiviral activity against HIV1 in human MT4 cells; assay type: functional, organism-based; conditions: Human immunodeficiency virus 1, MT4
[10] = molecular target: T1, Thymidine kinase, cytosolic (Homo sapiens, UniProt P04183); experiment: Inhibition of recombinant TK1-mediated phosphorylation of [CH3-3H]deoxythymidine
T1 sequence (P04183 whole entry): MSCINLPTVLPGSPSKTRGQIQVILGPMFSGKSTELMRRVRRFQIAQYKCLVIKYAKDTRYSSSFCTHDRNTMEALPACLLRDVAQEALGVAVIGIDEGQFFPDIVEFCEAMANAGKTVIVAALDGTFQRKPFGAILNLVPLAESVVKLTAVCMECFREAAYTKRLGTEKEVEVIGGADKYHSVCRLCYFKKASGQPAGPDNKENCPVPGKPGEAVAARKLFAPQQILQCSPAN

[11] = molecular target: T1, Thymidine kinase, cytosolic; experiment: Inhibition of recombinant TK1-mediated phosphorylation of [CH3-3H]deoxythymidine in presence of dithiothreitol
[12] = Cytotoxicity against human MT4 cells; assay type: cell-based
[13] = system: Human immunodeficiency virus 1; experiment: Antiviral activity against HIV1 in CEM cells assessed as reduction of viral replication at 5 to 10 uM; assay type: functional, CCRF-CEM; parameters: scale not given: the % may be the effect or the level left

Row | SMILES | EC50 [1] | half-life [4] | half-life [5] | EC50 [6] | EC50 [7] | EC50 [9] | IC50 [10] | IC50 [11] | EC50 [2] | IC50 [3] | CC50 [8] | CC50 [12] | Activity [13]
1 | Nc1ccn(C2C[C@H](S)[C@@H](CO)O2)c(=O)n1 (single isomer, unassigned) | – | – | – | – | – | 20 µM | – | – | – | – | – | – | –
2 | CSS[C@H]1C[C@H](n2cc(Br)c(=O)[nH]c2=O)O[C@@H]1CO | ≥ 50 µM | – | – | – | ≥ 50 µM | – | – | – | – | – | 103 µM | – | –
3 | Nc1ccn([C@H]2C[C@H](SS[C@H]3C[C@H](n4ccc(N)nc4=O)O[C@@H]3CO)[C@@H](CO)O2)c(=O)n1 | 65 µM | – | – | – | 73 µM | – | – | – | – | – | 216 µM | – | –
4 | Nc1ncnc2c1ncn2CCOCP(=O)(O)O [ADEFOVIR] | – | – | – | – | – | – | – | – | 0.53 µM | – | – | – | –
5 | O=c1nc(O)ccn1[C@H]1C[C@H](SS[C@H]2C[C@H](n3ccc(O)nc3=O)O[C@@H]2CO)[C@@H](CO)O1 | > 250 µM | – | – | – | > 250 µM | – | – | – | – | – | ≥ 250 µM | – | –
6 | O=c1[nH]c(=O)n([C@H]2C[C@H](SS[C@H]3C[C@H](n4cc(Br)c(=O)[nH]c4=O)O[C@@H]3CO)[C@@H](CO)O2)cc1Br | ≥ 250 µM | – | – | – | 127 µM | – | – | – | – | – | > 250 µM | – | –
7 | CCCCCCSS[C@H]1C[C@H](n2cc(C)c(=O)[nH]c2=O)O[C@@H]1CO | 6.5 µM | < 480 min | < 5 min | > 10 µM | 20 µM | – | – | – | – | 27 µM | 39 µM | – | –
8 | Cc1cn([C@H]2C[C@H](SS[C@H]3C[C@H](n4cc(C)c(O)nc4=O)O[C@@H]3CO)[C@@H](CO)O2)c(=O)nc1O | – | – | – | – | – | 16 µM | – | – | – | – | – | 34 µM | –
9 | CSS[C@H]1C[C@H](n2ccc(=O)[nH]c2=O)O[C@@H]1CO | ≥ 50 µM | – | – | – | > 50 µM | – | – | – | – | – | 170 µM | – | –

Continued, in another order:

Row | EC50 [1] | half-life [4] | half-life [5] | EC50 [6] | EC50 [7] | EC50 [9] | IC50 [10] | IC50 [11] | SMILES | EC50 [2] | IC50 [3] | CC50 [8] | CC50 [12] | Activity [13]
10 | 7.3 µM | < 10 min | < 5 min | ≥ 10 µM | 8 µM | – | – | – | Cc1cn([C@H]2C[C@H](SSc3ccc([N+](=O)[O-])cc3)[C@@H](CO)O2)c(=O)[nH]c1=O | 0.89 µM | 29 µM | 23 µM | – | –
11 | 27.5 µM | < 480 min | < 5 min | 150 µM | 20 µM | – | 10 µM | 418 µM | Cc1cn([C@H]2C[C@H](SSCCN)[C@@H](CO)O2)c(=O)[nH]c1=O | 63 µM | 163 µM | 437 µM | – | –
12 | 15 µM | < 480 min | < 5 min | > 50 µM | 15 µM | – | – | – | Cc1cn([C@H]2C[C@H](SSCCCCCCO)[C@@H](CO)O2)c(=O)[nH]c1=O | – | 42 µM | 52 µM | – | –
13 | 4.5 µM | < 480 min | < 5 min | > 10 µM | 20 µM | – | – | – | CCCCCCCCSS[C@H]1C[C@H](n2cc(C)c(=O)[nH]c2=O)O[C@@H]1CO | – | 26 µM | 21 µM | – | –
14 | 14 µM | – | < 5 min | 45 µM | 10 µM | – | – | – | CSS[C@H]1C[C@H](n2ccc(N)nc2=O)O[C@@H]1CO | 48 µM | 149 µM | 111 µM | – | –
15 | 15 µM | < 480 min | < 5 min | > 50 µM | 12.5 µM | – | – | – | C=CCSS[C@H]1C[C@H](n2cc(C)c(=O)[nH]c2=O)O[C@@H]1CO | 2.2 µM | 34 µM | 53 µM | – | –
16 | 17.5 µM | < 90 min | < 5 min | 22.5 µM | 20 µM | – | 13 µM | 365 µM | Cc1cn([C@H]2C[C@H](SSC(Cl)(Cl)Cl)[C@@H](CO)O2)c(=O)[nH]c1=O | > 20 µM | 55 µM | 103 µM | – | –
17 | > 10 µM | < 480 min | < 5 min | > 10 µM | 8 µM | – | – | – | CCCCSS[C@H]1C[C@H](n2cc(C)c(=O)[nH]c2=O)O[C@@H]1CO | 1 µM | 28 µM | 23.3 µM | – | –
18 | > 10 µM | < 10 min | < 5 min | > 10 µM | 10 µM | – | – | – | Cc1cn([C@H]2C[C@H](SSc3ccccc3[N+](=O)[O-])[C@@H](CO)O2)c(=O)[nH]c1=O | 1.1 µM | 31 µM | 18.5 µM | – | –
19 | 14 µM | < 480 min | < 5 min | > 50 µM | 13.5 µM | – | 18 µM | 405 µM | Cc1cn([C@H]2C[C@H](SSCCO)[C@@H](CO)O2)c(=O)[nH]c1=O | 5.9 µM | 128 µM | 347 µM | – | –
20 | 12 µM | < 480 min | < 5 min | > 50 µM | 12 µM | – | 73 µM | 333 µM | CSS[C@H]1C[C@H](n2cc(C)c(=O)[nH]c2=O)O[C@@H]1CO | 8.3 µM | 66 µM | 102 µM | – | 50%
21 | – | – | – | – | 5.5 µM | – | – | – | C[C@H](Cn1cnc2c(N)ncnc21)OCP(=O)(O)O [TENOFOVIR ANHYDROUS] | 0.23 µM | – | – | – | –
